Results taken from ChEMBL document CHEMBL4507276 (2021).

What was measured:
[1] = target: Eukaryotic translation initiation factor 2-alpha kinase 1 (Homo sapiens) (UniProt Q9BQI3); conditions: Compound concentration 1000.0 nM
[2] = target: Fibroblast growth factor receptor 1 (Homo sapiens) (UniProt P11362); conditions: Compound concentration 1000.0 nM
[3] = target: Receptor-type tyrosine-protein kinase FLT3 (Homo sapiens) (UniProt P36888); conditions: Compound concentration 1000.0 nM
[4] = tested on: Receptor-type tyrosine-protein kinase FLT3 (Homo sapiens), P36888 [N841I]; conditions: Compound concentration 1000.0 nM
[5] = tested on: Mast/stem cell growth factor receptor Kit (Homo sapiens), P10721 [D816H]; conditions: Compound concentration 1000.0 nM
[6] = target: T1, Mitogen-activated protein kinase kinase kinase 2 (Homo sapiens) (UniProt Q9Y2U5); conditions: Compound concentration 1000.0 nM
T1 sequence (whole entry): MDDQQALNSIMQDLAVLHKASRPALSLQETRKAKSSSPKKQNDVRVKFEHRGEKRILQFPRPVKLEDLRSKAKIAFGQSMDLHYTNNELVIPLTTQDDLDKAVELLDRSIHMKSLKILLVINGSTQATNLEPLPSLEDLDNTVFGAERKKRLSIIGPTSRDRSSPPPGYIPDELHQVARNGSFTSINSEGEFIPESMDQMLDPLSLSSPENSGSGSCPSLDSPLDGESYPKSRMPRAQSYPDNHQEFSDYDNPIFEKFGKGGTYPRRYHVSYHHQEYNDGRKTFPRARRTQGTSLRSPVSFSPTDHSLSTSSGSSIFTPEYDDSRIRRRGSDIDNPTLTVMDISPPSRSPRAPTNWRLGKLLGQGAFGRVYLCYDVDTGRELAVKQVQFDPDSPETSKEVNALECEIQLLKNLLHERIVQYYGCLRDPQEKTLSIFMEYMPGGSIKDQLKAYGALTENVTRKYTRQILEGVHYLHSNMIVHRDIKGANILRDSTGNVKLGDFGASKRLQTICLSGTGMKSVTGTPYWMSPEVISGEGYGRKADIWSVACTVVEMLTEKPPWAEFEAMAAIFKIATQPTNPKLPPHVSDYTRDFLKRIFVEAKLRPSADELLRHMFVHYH

[7] = target: Macrophage-stimulating protein receptor (Homo sapiens) (UniProt Q04912); conditions: Compound concentration 1000.0 nM
[8] = target: Myosin light chain kinase 2, skeletal/cardiac muscle (Homo sapiens) (UniProt Q9H1R3); conditions: Compound concentration 1000.0 nM
[9] = target: Phosphorylase b kinase regulatory subunit alpha, liver isoform (Homo sapiens) (UniProt P46019); conditions: Compound concentration 1000.0 nM
[10] = target: Serine/threonine-protein kinase PknB (Mycobacterium tuberculosis) (UniProt P9WI81); conditions: Compound concentration 1000.0 nM
[11] = target: Protein kinase C delta type (Homo sapiens) (UniProt Q05655); conditions: Compound concentration 1000.0 nM
[12] = target: T2, Serine/threonine-protein kinase D3 (Homo sapiens) (UniProt O94806); conditions: Compound concentration 1000.0 nM
T2 sequence (whole entry): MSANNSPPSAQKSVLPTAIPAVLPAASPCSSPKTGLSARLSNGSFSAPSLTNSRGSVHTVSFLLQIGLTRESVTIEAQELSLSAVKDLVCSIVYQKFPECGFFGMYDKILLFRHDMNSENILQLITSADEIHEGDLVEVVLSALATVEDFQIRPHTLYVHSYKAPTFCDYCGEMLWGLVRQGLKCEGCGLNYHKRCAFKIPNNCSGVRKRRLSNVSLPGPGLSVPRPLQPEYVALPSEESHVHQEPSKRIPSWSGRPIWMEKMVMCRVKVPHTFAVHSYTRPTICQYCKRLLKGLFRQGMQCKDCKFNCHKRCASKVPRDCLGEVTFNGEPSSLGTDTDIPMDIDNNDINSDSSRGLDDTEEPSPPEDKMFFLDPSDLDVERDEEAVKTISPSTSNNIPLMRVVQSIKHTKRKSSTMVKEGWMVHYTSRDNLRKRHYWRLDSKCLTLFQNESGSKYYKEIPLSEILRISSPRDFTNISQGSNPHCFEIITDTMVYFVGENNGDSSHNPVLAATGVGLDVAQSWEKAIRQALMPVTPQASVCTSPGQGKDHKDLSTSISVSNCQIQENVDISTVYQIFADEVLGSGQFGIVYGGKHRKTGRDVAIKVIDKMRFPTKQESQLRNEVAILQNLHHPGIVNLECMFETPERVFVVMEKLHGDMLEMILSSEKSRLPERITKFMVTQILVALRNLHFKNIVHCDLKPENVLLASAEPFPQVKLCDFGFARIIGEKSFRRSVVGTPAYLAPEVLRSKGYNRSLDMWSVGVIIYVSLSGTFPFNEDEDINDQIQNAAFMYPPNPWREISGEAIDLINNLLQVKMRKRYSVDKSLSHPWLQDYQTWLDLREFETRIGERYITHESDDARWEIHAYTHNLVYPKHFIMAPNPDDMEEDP

[13] = target: Receptor-interacting serine/threonine-protein kinase 2 (Homo sapiens) (UniProt O43353); conditions: Compound concentration 1000.0 nM
[14] = target: Ribosomal protein S6 kinase alpha-6 (Homo sapiens) (UniProt Q9UK32); conditions: Compound concentration 1000.0 nM
[15] = target: Dual specificity testis-specific protein kinase 1 (Homo sapiens) (UniProt Q15569); conditions: Compound concentration 1000.0 nM
[16] = target: Serine/threonine-protein kinase tousled-like 1 (Homo sapiens) (UniProt Q9UKI8); conditions: Compound concentration 1000.0 nM
[17] = target: Serine/threonine-protein kinase WNK3 (Homo sapiens) (UniProt Q9BYP7); conditions: Compound concentration 1000.0 nM
[18] = target: T3, 5-hydroxytryptamine receptor 3A (Homo sapiens) (UniProt P46098); conditions: Compound concentration 10.0 uM
T3 sequence (whole entry): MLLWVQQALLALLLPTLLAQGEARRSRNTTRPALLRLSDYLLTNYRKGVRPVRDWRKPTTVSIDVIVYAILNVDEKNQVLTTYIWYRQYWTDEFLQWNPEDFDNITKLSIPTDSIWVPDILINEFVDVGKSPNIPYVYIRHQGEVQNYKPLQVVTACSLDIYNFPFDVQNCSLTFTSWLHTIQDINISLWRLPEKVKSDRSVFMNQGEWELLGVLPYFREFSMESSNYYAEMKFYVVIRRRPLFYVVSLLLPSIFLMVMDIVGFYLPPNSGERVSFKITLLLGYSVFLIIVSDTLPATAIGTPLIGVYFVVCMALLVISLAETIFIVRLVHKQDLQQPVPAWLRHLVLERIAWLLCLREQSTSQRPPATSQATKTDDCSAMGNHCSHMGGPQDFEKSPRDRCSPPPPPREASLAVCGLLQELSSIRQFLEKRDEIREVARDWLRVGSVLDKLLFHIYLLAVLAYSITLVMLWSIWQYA

Ribosomal protein S6 kinase alpha-6 (Homo sapiens), sequence (Q9UK32 whole entry): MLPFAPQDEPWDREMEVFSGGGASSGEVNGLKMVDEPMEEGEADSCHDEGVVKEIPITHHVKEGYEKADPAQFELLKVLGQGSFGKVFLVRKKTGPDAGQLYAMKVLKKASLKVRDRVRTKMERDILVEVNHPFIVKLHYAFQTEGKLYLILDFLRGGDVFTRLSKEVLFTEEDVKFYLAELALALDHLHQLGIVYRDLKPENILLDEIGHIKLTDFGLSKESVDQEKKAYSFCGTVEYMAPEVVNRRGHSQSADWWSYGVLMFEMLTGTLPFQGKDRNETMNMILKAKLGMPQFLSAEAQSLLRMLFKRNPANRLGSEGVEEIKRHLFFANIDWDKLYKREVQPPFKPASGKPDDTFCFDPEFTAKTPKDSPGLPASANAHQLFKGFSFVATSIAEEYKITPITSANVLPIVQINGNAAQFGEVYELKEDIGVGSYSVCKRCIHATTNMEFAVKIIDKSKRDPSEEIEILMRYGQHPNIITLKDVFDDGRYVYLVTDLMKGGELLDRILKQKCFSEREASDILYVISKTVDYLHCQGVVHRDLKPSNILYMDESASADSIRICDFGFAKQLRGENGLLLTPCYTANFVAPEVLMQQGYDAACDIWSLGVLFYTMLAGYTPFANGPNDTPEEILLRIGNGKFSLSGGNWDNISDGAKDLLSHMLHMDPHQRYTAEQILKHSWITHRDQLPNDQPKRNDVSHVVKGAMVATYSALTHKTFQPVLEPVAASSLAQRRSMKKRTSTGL
Receptor-interacting serine/threonine-protein kinase 2 (Homo sapiens), sequence (O43353 whole entry): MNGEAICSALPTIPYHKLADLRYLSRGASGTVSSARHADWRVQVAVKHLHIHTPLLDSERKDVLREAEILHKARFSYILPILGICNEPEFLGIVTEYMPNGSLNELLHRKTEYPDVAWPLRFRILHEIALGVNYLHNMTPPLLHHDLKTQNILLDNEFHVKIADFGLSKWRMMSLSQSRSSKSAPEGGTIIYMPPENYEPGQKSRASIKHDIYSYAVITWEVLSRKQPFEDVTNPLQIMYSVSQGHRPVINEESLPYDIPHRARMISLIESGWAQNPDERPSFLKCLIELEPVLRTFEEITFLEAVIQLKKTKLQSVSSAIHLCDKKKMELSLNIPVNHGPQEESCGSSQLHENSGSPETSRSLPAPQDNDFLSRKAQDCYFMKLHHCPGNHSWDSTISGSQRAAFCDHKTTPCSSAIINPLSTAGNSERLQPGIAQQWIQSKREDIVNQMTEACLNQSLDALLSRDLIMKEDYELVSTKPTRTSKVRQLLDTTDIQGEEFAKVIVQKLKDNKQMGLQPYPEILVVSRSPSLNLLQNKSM
Fibroblast growth factor receptor 1 (Homo sapiens), sequence (P11362 22-822 limits assumed): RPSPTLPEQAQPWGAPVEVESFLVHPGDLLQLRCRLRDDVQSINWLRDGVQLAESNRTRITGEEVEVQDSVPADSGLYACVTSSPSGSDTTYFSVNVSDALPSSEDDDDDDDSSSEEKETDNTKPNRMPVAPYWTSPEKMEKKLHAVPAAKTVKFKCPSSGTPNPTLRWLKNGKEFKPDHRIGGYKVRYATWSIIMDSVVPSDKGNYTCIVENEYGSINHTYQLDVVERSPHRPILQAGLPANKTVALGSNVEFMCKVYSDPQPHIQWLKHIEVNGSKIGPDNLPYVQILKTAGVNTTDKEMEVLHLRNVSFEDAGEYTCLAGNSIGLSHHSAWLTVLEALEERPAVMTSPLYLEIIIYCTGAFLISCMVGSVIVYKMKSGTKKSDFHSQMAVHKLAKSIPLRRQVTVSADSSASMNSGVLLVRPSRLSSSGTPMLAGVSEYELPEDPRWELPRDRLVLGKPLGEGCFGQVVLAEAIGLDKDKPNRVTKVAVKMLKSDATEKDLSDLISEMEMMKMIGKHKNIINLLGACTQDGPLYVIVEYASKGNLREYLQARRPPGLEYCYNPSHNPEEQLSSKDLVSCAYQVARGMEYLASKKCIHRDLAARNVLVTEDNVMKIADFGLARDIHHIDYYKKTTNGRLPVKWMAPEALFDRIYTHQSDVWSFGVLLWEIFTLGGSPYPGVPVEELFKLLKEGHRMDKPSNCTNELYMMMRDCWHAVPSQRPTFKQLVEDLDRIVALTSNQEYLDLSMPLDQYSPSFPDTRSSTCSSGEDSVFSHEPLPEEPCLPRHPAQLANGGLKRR
Eukaryotic translation initiation factor 2-alpha kinase 1 (Homo sapiens), sequence (Q9BQI3 whole entry): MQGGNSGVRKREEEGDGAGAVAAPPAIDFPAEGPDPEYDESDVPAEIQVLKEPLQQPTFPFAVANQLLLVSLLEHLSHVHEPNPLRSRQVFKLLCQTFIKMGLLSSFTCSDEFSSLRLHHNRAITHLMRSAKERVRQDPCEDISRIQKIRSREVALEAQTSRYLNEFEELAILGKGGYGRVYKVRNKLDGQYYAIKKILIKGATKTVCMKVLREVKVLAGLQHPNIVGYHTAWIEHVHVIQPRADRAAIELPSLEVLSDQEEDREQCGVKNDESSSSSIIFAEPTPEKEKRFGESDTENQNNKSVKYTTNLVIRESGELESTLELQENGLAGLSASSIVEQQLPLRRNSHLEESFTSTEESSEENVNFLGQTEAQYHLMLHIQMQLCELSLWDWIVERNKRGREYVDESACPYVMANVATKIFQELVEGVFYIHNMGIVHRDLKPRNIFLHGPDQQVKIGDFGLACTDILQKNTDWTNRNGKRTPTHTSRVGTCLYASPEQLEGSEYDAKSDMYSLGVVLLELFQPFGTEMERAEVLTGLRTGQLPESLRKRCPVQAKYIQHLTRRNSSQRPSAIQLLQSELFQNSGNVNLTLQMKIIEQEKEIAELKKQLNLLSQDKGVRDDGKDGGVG
Myosin light chain kinase 2, skeletal/cardiac muscle (Homo sapiens), sequence (Q9H1R3 whole entry, canonical isoform): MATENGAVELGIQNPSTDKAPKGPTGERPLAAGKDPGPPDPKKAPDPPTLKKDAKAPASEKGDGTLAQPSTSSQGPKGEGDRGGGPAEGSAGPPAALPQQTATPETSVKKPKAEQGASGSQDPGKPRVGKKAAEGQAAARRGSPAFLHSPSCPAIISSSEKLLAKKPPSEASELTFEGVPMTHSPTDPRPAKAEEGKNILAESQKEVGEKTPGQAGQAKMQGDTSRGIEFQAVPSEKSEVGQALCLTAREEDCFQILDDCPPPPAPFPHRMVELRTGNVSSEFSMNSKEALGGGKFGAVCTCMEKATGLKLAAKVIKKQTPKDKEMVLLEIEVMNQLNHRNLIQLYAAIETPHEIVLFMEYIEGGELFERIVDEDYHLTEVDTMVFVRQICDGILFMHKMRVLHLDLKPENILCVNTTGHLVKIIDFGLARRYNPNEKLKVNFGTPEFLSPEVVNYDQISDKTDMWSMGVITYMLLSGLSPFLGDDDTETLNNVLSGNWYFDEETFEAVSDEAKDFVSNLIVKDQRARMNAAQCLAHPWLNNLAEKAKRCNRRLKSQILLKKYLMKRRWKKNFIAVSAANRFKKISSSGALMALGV
Protein kinase C delta type (Homo sapiens), sequence (Q05655 whole entry, looked up): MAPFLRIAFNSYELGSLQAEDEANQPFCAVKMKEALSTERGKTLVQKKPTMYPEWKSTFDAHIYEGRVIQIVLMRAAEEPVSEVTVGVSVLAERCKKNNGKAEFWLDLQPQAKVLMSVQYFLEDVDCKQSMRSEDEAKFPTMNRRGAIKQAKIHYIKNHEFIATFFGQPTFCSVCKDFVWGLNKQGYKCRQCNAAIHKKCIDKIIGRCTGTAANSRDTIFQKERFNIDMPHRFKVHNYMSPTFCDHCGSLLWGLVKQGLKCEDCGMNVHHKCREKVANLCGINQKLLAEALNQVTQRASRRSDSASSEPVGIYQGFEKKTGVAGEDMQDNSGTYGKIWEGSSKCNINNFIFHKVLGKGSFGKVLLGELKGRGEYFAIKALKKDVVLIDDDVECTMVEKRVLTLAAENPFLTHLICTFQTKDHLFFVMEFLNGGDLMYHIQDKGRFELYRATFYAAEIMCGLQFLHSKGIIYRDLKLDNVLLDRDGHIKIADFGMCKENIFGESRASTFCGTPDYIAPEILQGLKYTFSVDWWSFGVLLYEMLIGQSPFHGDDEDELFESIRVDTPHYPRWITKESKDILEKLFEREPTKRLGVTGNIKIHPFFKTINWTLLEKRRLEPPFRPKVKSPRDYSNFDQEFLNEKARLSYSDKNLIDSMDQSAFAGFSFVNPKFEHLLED
Serine/threonine-protein kinase tousled-like 1 (Homo sapiens), sequence (Q9UKI8 whole entry): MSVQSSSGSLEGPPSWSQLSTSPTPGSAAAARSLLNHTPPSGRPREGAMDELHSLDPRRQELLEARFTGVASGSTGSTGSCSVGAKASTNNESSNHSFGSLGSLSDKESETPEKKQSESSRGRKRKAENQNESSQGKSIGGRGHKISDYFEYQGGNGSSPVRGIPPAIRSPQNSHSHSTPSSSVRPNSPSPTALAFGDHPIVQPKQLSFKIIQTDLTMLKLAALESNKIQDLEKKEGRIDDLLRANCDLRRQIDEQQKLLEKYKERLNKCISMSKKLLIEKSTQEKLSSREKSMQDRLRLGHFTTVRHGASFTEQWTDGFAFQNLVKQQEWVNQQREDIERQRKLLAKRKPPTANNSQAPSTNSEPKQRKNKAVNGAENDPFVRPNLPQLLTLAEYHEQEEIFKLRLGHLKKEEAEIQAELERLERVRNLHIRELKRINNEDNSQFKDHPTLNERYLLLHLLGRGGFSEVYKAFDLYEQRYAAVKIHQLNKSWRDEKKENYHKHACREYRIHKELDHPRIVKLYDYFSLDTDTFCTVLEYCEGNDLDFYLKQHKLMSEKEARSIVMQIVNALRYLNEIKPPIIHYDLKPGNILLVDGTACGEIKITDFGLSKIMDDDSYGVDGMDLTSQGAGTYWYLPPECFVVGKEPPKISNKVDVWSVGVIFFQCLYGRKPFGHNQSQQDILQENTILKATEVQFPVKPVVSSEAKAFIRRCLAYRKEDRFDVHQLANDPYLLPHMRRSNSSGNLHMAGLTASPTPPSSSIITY

CN(C)C(=O)Cn1cc(-c2nc(C3(c4ccc(-c5cnc(N)nc5)cc4)CC3)no2)cn1 [BI 0153]
inactive: residual activity [1] 88% | residual activity [2] 72% | residual activity [3] 90% | residual activity [4] 100% | residual activity [5] 85% | residual activity [6] 93% | residual activity [7] 95% | residual activity [8] 90% | residual activity [9] 91% | residual activity [10] 85% | residual activity [11] 67% | residual activity [12] 92% | residual activity [13] 100% | residual activity [14] 100% | residual activity [15] 94% | residual activity [16] 100% | residual activity [17] 87% | inhibition [18] -8.52%

CN(C)C(=O)Cn1cc(-c2nc([C@@](C)(c3ccc(-c4cnc(N)nc4)cc3)C3CC3)no2)cn1 [BI 665915]
inactive: residual activity [1] 96% | residual activity [2] 95% | residual activity [3] 97% | residual activity [4] 83% | residual activity [5] 100% | residual activity [6] 94% | residual activity [7] 79% | residual activity [8] 100% | residual activity [9] 80% | residual activity [10] 100% | residual activity [11] 98% | residual activity [12] 100% | residual activity [13] 87% | residual activity [14] 100% | residual activity [15] 90% | residual activity [16] 100% | residual activity [17] 76% | inhibition [18] -2.76%
